The test system of data set [1] is Bloodstream form of Trypanosoma brucei, strain Lister 427. Put plainly: Trypanosoma brucei growth inhibition assay (CellTiter-Glo, 24 h). Format: cell-based. The settings on record: Trypanosoma brucei. The method in brief:
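Bloodstream-form T. brucei Lister 427, 1500 parasites per well in supplemented IMDM with 10% FBS, were exposed to compound (DMSO ≤0.25% final) for 24 h at 37 °C. Viability was measured by CellTiter-Glo luminescence.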

The subject of the next data set is HeLa cells. The data set is described as follows: HeLa cytotoxicity assay (CellTiter Glo, 72 h). Format: cell-based. The settings on record: Homo sapiens, read-out: Cell Proliferation Hela IC50. As to the method: (§1) HeLa cells (ATCC® CCL2™) in DMEM (Dulbecco Modified Eagle's Medium) without phenol red, Thermo, 11880, USA+10% FBS+1× PenStrep+1× Gln or HUVEC cells (ATCC® CRL1730™) in EBM-2 (Endothelial Growth Basal Medium, Lonza, CC3156)+EGM-2 SingleQuotsTMSupplements and Growth Factors (Lonza, CC4176)+1× Penicyllin-Streptomycin (PenStrep, ThermoFisher)+1× Glutamine, are plated in a 384 well plate (Thermo, 4334-11, USA) to a density of 2000 cells per well and let recover for four hours at 37° C., 5% CO2 in a humidified atmosphere. After the recovery, compounds are transferred to assay plates as per compound preparation method. Assay plates are then incubated at 37° C., 5% CO2 in a humidified atmosphere for 72 hours. Cell viability is measured by the CellTiter Glo (Promega, G8080, USA) as per manufacturer instruction.
(In general: In ATP-based viability assays light output follows the ATP content of the culture.)

The next data set has as its system HUVEC cells. The data set is described as follows: HUVEC cytotoxicity assay (CellTiter Glo, 72 h). The class given is cell-based. The following applies: Homo sapiens, read-out: Cell Proliferation HUVEC IC50. As to the method: as §1
Data set [2] is described as follows: PK studies: plasma exposure and pharmacokinetic parameters after i.v., oral and i.p. administration. Format: in vivo, C57BL/6 mice. As to the method:
C57BL/6 mice were used to evaluate plasma exposure and pharmacokinetic parameters after intravenous, oral and intraperitoneal administration (5, 10, 30 mpk). In each animal an indwelling cannula was implanted in the right jugular vein for blood sampling. The surgery was performed under light anaesthesia (Ketamine-Xilazine (85 mg/kg and 2.5 mg/kg respectively i.m.) one day prior the experiment). During the kinetic study, all animals were housed individually in plastic metabolism cages, and were unrestrained throughout the experiment. Compounds (6 mg/mL) were dissolved in PEG400/H2O (50/50). After an overnight fast, the mice (15 animals per experiment) received an i.v. (via caudal vein) or an oral dose of the compound. Blood samples were collected at different times point after dosing. Plasma was separated immediately after blood sampling by centrifugation, and the plasma samples were kept frozen (−20° C.) until assayed by LC/MS/MS.
Analytical procedures: Plasma samples were extracted using Liquid Handling Robot MultiProbe Packard by protein precipitation with acetonitrile. Then the samples were centrifuged (3000 rpm×15 min at 4° C.) and the supernatant transferred and dried under nitrogen. The samples were reconstituted in water/acetonitrile 90/10 and then injected directly into an HPLC column. Sample analyses were performed using a an API 3000 or/and API 2000 or/and API 4000 Mass Spectrometer interfaced via the Turbo Ion Spray (ESI)/APCI to an LC system consisting of an HTS PAL CTC autosampler and an Agilen HP 1100 Binary Pump. The results are calculated using Analyst Software linear regression with 1/x*x weighting. The Assay Precision was calculated for the Quality Controls by Watson Lims database.
Pharmacokinetic Analysis: The plasma clearance (CLp) of the compounds were calculated (using Watson PK program) as the dose divided by the area under the plasma concentration-time curve from time zero to infinity (AUC0-∞). The apparent half-life was estimated from the slope of the terminal phase of the log plasma concentration-time data. The volume of distribution (Vdss) was determined using the following noncompartmental method: Vdss=(Dose IV×AUMC)/(AUC0-∞)2 where AUMC is the total area under the first moment of the drug concentration time curve from time zero to infinity. Bioavailability was estimated as the AUC0-∞ ratio following oral and intravenous administration, normalized for differences in dose.

[3] abbreviates: T. Brucei Growth Inibition Assay, class symbols, read-out: T. Brucei GI EC50.
Where [4] appears, read: Table 3, read-out: T. brucei GI EC50.

The values that follow come from patent publication US10815222B2, “Compounds for use in the treatment of kinetoplastid infection” (C.N.C.C.S. S.c.a.r.l. COLLEZIONE NAZIONALE DEI COMPOSTI …, priority 2016, dated 2020).

The structures appear in SMILES notation. Read-outs that look alike come from different tables or passages of the source. Bounds are passed on as bounds.

A word on the EC50: it is the concentration at which the effect is half-maximal. Broadly, the EC90 is the concentration at which the effect reaches the 90% level. A word on the AUC: it is concentration integrated over time. What is called bioavailability is the share of a dose that reaches the circulation, judged against a reference dose that is usually intravenous. With `COc1nc2ccccc2cc1-c1cnc(C2CN(CC3CCOC3)CCN2C(=O)Cn2c(C(F)(F)F)nc3ccccc32)[nH]1` (stereo not shown) [1-(2-(5-(2-methoxyquinolin-3-yl)-1H-imidazol-2-yl)-4-((tetrahydrofuran-3-yl)methyl)piperazin-1-yl)-2-(2-(trifluoromethyl)-1H-benzo[d]imidazol-1-yl)ethan-1-one], the EC50 in data set [1] (setting [3]) was less than 100 nM; in data set [1] (setting [4]), 29.9 nM; in data set [1] (Table 4, read-out: T. brucei Growth inhibition EC50), 30 nM. The EC90 in data set [1] (Table 4, read-out: T. brucei Growth inhibition EC90) came out at 287 nM. For the same compound, the IC50 came out at 21500 nM in the data set on HeLa cells and 14100 nM in the data set on HUVEC cells. This compound returned a clearance in data set [2] (C57BL/6, intravenous, 5 mpk, mouse, plasma clearance) of 44.7 mL/min/kg. In data set [2] (C57BL/6, mouse, plasma, oral, 10 mpk), the AUC came out at 4.6 µM·h. Also, the bioavailability in data set [2] (C57BL/6, plasma, 10 mg/kg, mouse, 10 mpk, po, single oral dose, read-out: Oral Bioavailability F %) turned out to be 78%. In addition, the “i.p. max brain concentration” value in data set [2] (mouse, after intraperitoneal injection (30 mpk), brain) turned out to be 190 nM.

Consider `COc1nc2ccccc2cc1-c1cnc(C2CN(Cc3cnn(C)c3)CCN2C(=O)Cc2c(C)[nH]c3ccc(F)cc23)[nH]1` (stereo not shown) [2-(5-fluoro-2-methyl-1H-indol-3-yl)-1-(2-(5-(2-methoxyquinolin-3-yl)-1H-imidazol-2-yl)-4-((1-methyl-1H-pyrazol-4-yl)methyl)piperazin-1-yl)ethan-1-one], for which the EC50 is 100 to 500 nM in data set [1] (setting [3]) and 172 nM in data set [1] (setting [4]). The IC50 is 17400 nM in the data set with HeLa cells and 6720 nM with HUVEC cells.

As to `COc1nc2ccccc2cc1-c1cnc(C2CN(CC3CCOC3)CCN2C(=O)Cc2c(C)[nH]c3ccc(F)cc23)[nH]1` (stereo not shown) [2-(5-fluoro-2-methyl-1H-indol-3-yl)-1-(2-(5-(2-methoxyquinolin-3-yl)-1H-imidazol-2-yl)-4-((tetrahydrofuran-3-yl)methyl)piperazin-1-yl)ethan-1-one], the EC50 in data set [1] (setting [3]) was less than 100 nM; in data set [1] (setting [4]), 35.1 nM. The IC50 in the data set with HeLa cells worked out at 18700 nM; with HUVEC cells it was 9630 nM.

Consider `COc1nc2ccccc2cc1-c1cnc(C2CN(C3CCOCC3)CCN2C(=O)Cc2c(C)[nH]c3ccc(F)cc23)[nH]1` (stereo not shown) [2-(5-fluoro-2-methyl-1H-indol-3-yl)-1-(2-(5-(2-methoxyquinolin-3-yl)-1H-imidazol-2-yl)-4-(tetrahydro-2H-pyran-4-yl)piperazin-1-yl)ethan-1-one], for which the figures for the EC50 in data set [1] (setting [3]) and in data set [1] (setting [4]) were 100 to 500 nM and 117 nM, respectively. The IC50 was no less than 25000 nM in the data set with HeLa cells and 10600 nM in the data set on HUVEC cells.

`COc1nc2ccccc2cc1-c1cnc(C2CN(Cc3nccs3)CCN2C(=O)Cc2c(C)[nH]c3ccc(F)cc23)[nH]1` (stereo not shown) [2-(5-fluoro-2-methyl-1H-indol-3-yl)-1-(2-(5-(2-methoxyquinolin-3-yl)-1H-imidazol-2-yl)-4-(thiazol-2-ylmethyl)piperazin-1-yl)ethan-1-one]: the EC50 was less than 100 nM in data set [1] (setting [3]) and 60.6 nM in data set [1] (setting [4]). For the same compound, the figures for the IC50 in the data set on HeLa cells and in the data set on HUVEC cells were no less than 25000 nM and 8200 nM, respectively.

For the compound `COc1nc2ccccc2cc1-c1cnc(C2CN(C)CCN2C(=O)Cc2c(C)[nH]c3ccc(F)cc23)[nH]1` (stereo not shown) [2-(5-fluoro-2-methyl-1H-indol-3-yl)-1-(2-(5-(2-methoxyquinolin-3-yl)-1H-imidazol-2-yl)-4-methylpiperazin-1-yl)ethan-1-one], the EC50 in data set [1] (setting [3]) was 100 to 500 nM; in data set [1] (setting [4]), 122 nM. The IC50 in the data set on HeLa cells worked out at 18100 nM; in the data set on HUVEC cells, 5680 nM.

With `COc1ccc2[nH]c(C)c(CC(=O)N3CCN(CC4CCOC4)CC3c3ncc(-c4cc5ccccc5nc4OC)[nH]3)c2c1` (stereo not shown) [2-(5-methoxy-2-methyl-1H-indol-3-yl)-1-(2-(5-(2-methoxyquinolin-3-yl)-1H-imidazol-2-yl)-4-((tetrahydrofuran-3-yl)methyl)piperazin-1-yl)ethan-1-one], the EC50 in data set [1] (setting [3]) is less than 100 nM; in data set [1] (setting [4]), 22.9 nM. The IC50 with HeLa cells is no less than 25000 nM; with HUVEC cells, 23200 nM.

`COc1ccc2[nH]c(C)c(CC(=O)N3CCN(C)CC3c3ncc(-c4cc5ccccc5nc4OC)[nH]3)c2c1` (stereo not shown) [2-(5-methoxy-2-methyl-1H-indol-3-yl)-1-(2-(5-(2-methoxyquinolin-3-yl)-1H-imidazol-2-yl)-4-methylpiperazin-1-yl)ethan-1-one]: the EC50 in data set [1] (setting [3]) was 100 to 500 nM; in data set [1] (setting [4]), 139 nM. Further, the IC50 with HeLa cells and in the data set on HUVEC cells was no less than 25000 nM each time.

Regarding `COc1ccc2[nH]c(C)c(CC(=O)N3CCN(CC4CCOC4)CC3c3ncc(-c4ccc5ccccc5c4)[nH]3)c2c1` (stereo not shown) [2-(5-methoxy-2-methyl-1H-indol-3-yl)-1-(2-(5-(naphthalen-2-yl)-1H-imidazol-2-yl)-4-((tetrahydrofuran-3-yl)methyl)piperazin-1-yl)ethan-1-one], the concentration giving a half-maximal response (EC50) in data set [1] (setting [3]) was less than 100 nM; in data set [1] (setting [4]), 4.72 nM. Besides, the IC50 was no less than 25000 nM in the data set on HeLa cells and 18700 nM in the data set with HUVEC cells.

For the compound `COc1ccc2[nH]c(C)c(CC(=O)N3CCN(C)CC3c3ncc(-c4ccc5ccccc5c4)[nH]3)c2c1` (stereo not shown) [2-(5-methoxy-2-methyl-1H-indol-3-yl)-1-(4-methyl-2-(5-(naphthalen-2-yl)-1H-imidazol-2-yl)piperazin-1-yl)ethan-1-one], the results for the EC50 in data set [1] (setting [3]) and in data set [1] (setting [4]) were less than 100 nM and 39.9 nM, respectively. The IC50 in the data set on HeLa cells is no less than 25000 nM; in the data set with HUVEC cells, 21800 nM.

For the compound `CCC(=O)CCCN1CCN(C(=O)Cc2c(C)[nH]c3ccc(OC)cc23)C(c2ncc(-c3cc4ccccc4nc3OC)[nH]2)C1` (stereo not shown) [6-(4-(2-(5-methoxy-2-methyl-1H-indol-3-yl)acetyl)-3-(5-(2-methoxyquinolin-3-yl)-1H-imidazol-2-yl)piperazin-1-yl)hexan-3-one], the EC50 in data set [1] (setting [3]) was less than 100 nM; in data set [1] (setting [4]) it was 34.2 nM. For the same compound, the figures for the IC50 in the data set with HeLa cells and with HUVEC cells were no less than 25000 nM and 21400 nM, respectively.

On to `CCC(=O)CCCN1CCN(C(=O)Cc2c(C)[nH]c3ccc(OC)cc23)C(c2nnc(-c3ccc4ccccc4c3)o2)C1` (stereo not shown) [6-(4-(2-(5-methoxy-2-methyl-1H-indol-3-yl)acetyl)-3-(5-(naphthalen-2-yl)-1,3,4-oxadiazol-2-yl)piperazin-1-yl)hexan-3-one], for which the EC50 in data set [1] (setting [3]) is 100 to 500 nM; in data set [1] (setting [4]), 350 nM. The IC50 in the data set with HeLa cells and with HUVEC cells was no less than 25000 nM in each case.

Take `CCC(=O)CCCN1CCN(C(=O)Cc2c(C)[nH]c3ccc(OC)cc23)C(c2ncc(-c3ccc4ccccc4c3)[nH]2)C1` (stereo not shown) [6-(4-(2-(5-methoxy-2-methyl-1H-indol-3-yl)acetyl)-3-(5-(naphthalen-2-yl)-1H-imidazol-2-yl)piperazin-1-yl)hexan-3-one]: the EC50 in data set [1] (setting [3]) was less than 100 nM; in data set [1] (setting [4]) it was 9.92 nM. The IC50 with HeLa cells was 12300 nM; in the data set with HUVEC cells, no less than 25000 nM.
